Data as given in patent publication US20250263408A1 (Uniquest Pty Ltd, priority 2022, published 2025).

Columns and labels:
Ba/F3-Syk cells = target: T1, Ba/F3-Syk cells (Homo sapiens, UniProt P43405); assay: Ba/F3 Proliferation Assay, Ba/F3-Syk cells (Resazurin); format: cell-based; conditions: 48-hour incubation
T1 construct: fused on or other part: Possible but unprinted fusion partner: TEL (ETV6), the usual partner for Ba/F3 lines transformed by Syk; Nothing on a partner is printed
Experimental: (§1) Ba/F3-Syk and Ba/F3-WT (wild type) cells were maintained at ≤1×10^6 cell/mL in RPMI (Life Technologies) with 10% FBS at 37° C. and 5% CO2 for a maximum of four weeks. Ba/F3-WT additionally contained 2 ng/mL mIL-3 (R&D Systems) to induce cellular growth. Cells were counted and dispensed at 5000 cells/well using a Multidrop Liquid Dispenser in a volume of 45 μL into black 384-well TC treated plates (Greiner) and incubated for four hours in complete media (+mIL-3 for Ba/F3-WT). Compounds were serially diluted in 100% DMSO, prior to an intermediate dilution in RPMI media. 5 μL of compound (0.4% final DMSO) was added to the cells, followed by a 48-hour incubation period. 5 μL of Resazurin (60 μM final) was then added and cells were incubated at 37° C. for three hours, before fluorescence (λex530/λem585) was measured using an Ensight Multimode Plate Reader (Perkin Elmer).

[1] = system: Ba/F3-WT (wild type) cells; assay: Ba/F3 Proliferation Assay, Ba/F3-WT (wild type) cells with mIL-3 (Resazurin); format: cell-based; conditions: Mus musculus, BaF3, 48 h, Ba/F3-WT cells +mIL-3, 48-hour incubation
Experimental: as §1

Structure (SMILES) | EC50 (Ba/F3-Syk cells) [nM] | EC50 [1] [nM]
c1cnc2cc(-c3cnn(C4CCC4)c3)cc(OC[C@@H]3CNCCO3)c2c1 [Compound 3.5, 7-(1-cyclobutyl-1H-pyrazol-4-yl)-5-{[(2S)-morpholin-2-yl]methoxy}quinoline] | 61.8 | 902
Cc1cc(-c2cc(OC[C@@H]3CNCCO3)c3cccnc3c2)cs1 [Compound 3.7, 7-(5-methylthiophen-3-yl)-5-{[(2S)-morpholin-2-yl]methoxy}quinoline] | 134 | 3730
c1cnc2cc(-c3cc[nH]c3)cc(OC[C@@H]3CNCCO3)c2c1 [Compound 3.9, 5-{[(2S)-morpholin-2-yl]methoxy}-7-(1H-pyrrol-3-yl)quinoline] | 167 | > 10000
CC1(C)CNC[C@@H](COc2cc(-c3cnn(C4CCC4)c3)cc3ncccc23)O1 [Compound 3.13, 7-(1-cyclobutyl-1H-pyrazol-4-yl)-5-{[(2S)-6,6-dimethylmorpholin-2-yl]methoxy}quinoline] | 35.8 | 814
CC(C)(C)n1ccc(-c2cc(OC[C@@H]3CNCC4(CC4)O3)c3cccnc3c2)c1 [Compound 3.18, 7-(1-tert-butyl-1H-pyrrol-3-yl)-5-{[(5S)-4-oxa-7-azaspiro[2.5]octan-5-yl]methoxy}quinoline] | 23.1 | 5420
CC(C)n1cc(-c2cc(OC[C@@H]3CNCC4(CC4)O3)c3cccnc3c2)cn1 [Compound 3.21, 5-{[(SS)-4-oxa-7-azaspiro[2.5]octan-5-yl]methoxy}-7-[1-(propan-2-yl)-1H-pyrazol-4-yl]quinoline] | 13.1 | 614
Cn1ccc(-c2cc(OC[C@@H]3CNCCCO3)c3cccnc3c2)c1 [Compound 3.22, 7-(1-methyl-1H-pyrrol-3-yl)-5-{[(2S)-1,4-oxazepan-2-yl]methoxy}quinoline] | 99 | 9680
c1cnc2cc(-c3cc4n(c3)CCC4)cc(OC[C@@H]3CNCCO3)c2c1 [Compound 4, 7-(2,3-dihydro-1H-pyrrolizin-6-yl)-5-{[(2S)-morpholin-2-yl]methoxy}quinoline] | 87.7 | 7210
Cn1ccc(-c2cc(OC[C@@H]3CNCCO3)c3cncnc3c2)c1 [Compound 4.3, 7-(1-methyl-1H-pyrrol-3-yl)-5-{[(2S)-morpholin-2-yl]methoxy} quinazoline] | 586 | 5010

Further lines, results first:

EC50 (Ba/F3-Syk cells) [nM] | EC50 [1] [nM] | Structure (SMILES)
163 | 2140 | CC1(C)CNC[C@@H](COc2cc(-c3cnn(C(F)F)c3)cc3ncccc23)O1 [Compound 3.11, 7-[1-(difluoromethyl)-1H-pyrazol-4-yl]-5-{[(2S)-6,6-dimethylmorpholin-2-yl]methoxy}quinoline]
87 | 1680 | CC1(C)CNC[C@@H](COc2cc(-c3cnn(CC(F)F)c3)cc3ncccc23)O1 [Compound 3.12, 7-[1-(2,2-difluoroethyl)-1H-pyrazol-4-yl]-5-{[(2S)-6,6-dimethylmorpholin-2-yl]methoxy}quinoline]
11.9 | 6170 | CC1(C)CNC[C@@H](COc2cc(-c3ccn(C(C)(C)C)c3)cc3ncccc23)O1 [Compound 3.16, 7-(1-tert-butyl-1H-pyrrol-3-yl)-5-{[(28)-6,6-dimethylmorpholin-2-yl]methoxy}quinoline]
35.5 | 1960 | CC(C)(C)n1cc(-c2cc(OC[C@@H]3CNCC4(CC4)O3)c3cccnc3c2)cn1 [Compound 3.20, 7-(1-tert-butyl-1H-pyrazol-4-yl)-5-{[(5S)-4-oxa-7-azaspiro[2.5]octan-5-yl]methoxy}quinoline]
2320 | 7430 | Cn1cc(-c2cc(OC[C@@H]3CNCCO3)c3cncnc3c2)cn1 [Compound 4.1, 7-(1-methyl-1H-pyrazol-4-yl)-5-{[(2S)-morpholin-2-yl]methoxy} quinazoline]
171 | > 10000 | CC1(C)CNC[C@@H](COc2cc(-c3cnn(C(C)(C)C)c3)cc3ncncc23)O1 [Compound 4.2, 7-(1-tert-butyl-1H-pyrazol-4-yl)-5-{[(2S)-6,6-dimethyl-morpholin-2-yl]methoxy} quinazoline]
